In patent US8084478B2, “Substituted 5- phenylamino- 1, 3, 4-oxadiazol-2-ylcarbonylamino-4-phenoxy-cyclohexane carboxylic acid as inhibitors of acetyl coenzyme A diacylglycerol acyltransferase” (AsstraZeneca AB, priority 2006, dated 2011):

Experiments:
[1] = molecular target: T1, human DGAT1 (Homo sapiens, UniProt O75907); experiment: Human Enzyme Assay (DGAT1 activity, 14C oleoyl coenzyme A, insect cell membranes); assay type: biochemical; conditions: human DGAT1 expressed in sf9 insect cell membranes
T1 construct: made in house; host or cells: Sf9 insect cells, recombinant baculovirus; membrane fraction
T1 sequence (O75907 1-488): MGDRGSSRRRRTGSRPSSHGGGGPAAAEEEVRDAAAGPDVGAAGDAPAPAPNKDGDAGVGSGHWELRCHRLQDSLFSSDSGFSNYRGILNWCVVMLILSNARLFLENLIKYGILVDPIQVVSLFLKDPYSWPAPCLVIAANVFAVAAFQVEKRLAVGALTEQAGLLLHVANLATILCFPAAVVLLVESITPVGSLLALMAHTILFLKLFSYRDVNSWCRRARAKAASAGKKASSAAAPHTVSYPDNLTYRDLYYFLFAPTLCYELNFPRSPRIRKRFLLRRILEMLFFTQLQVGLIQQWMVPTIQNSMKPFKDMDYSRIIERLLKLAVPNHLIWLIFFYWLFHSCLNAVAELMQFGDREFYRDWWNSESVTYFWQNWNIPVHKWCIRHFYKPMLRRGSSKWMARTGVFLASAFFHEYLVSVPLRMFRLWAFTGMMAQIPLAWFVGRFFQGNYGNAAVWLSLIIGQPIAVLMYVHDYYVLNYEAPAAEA
Experimental: The in vitro assay to identify DGAT1 inhibitors uses human DGAT1 expressed in insect cell membranes as the enzyme source (Proc. Natl. Acad. Sci. 1998, 95, 13018-13023). Briefly, sf9 cells were infected with recombinant baculovirus containing human DGAT1 coding sequences and harvested after 48 h. Cells were lysed by sonication and membranes isolated by centrifuging at 28000 rpm for 1 h at 4° C. on a 41% sucrose gradient. The membrane fraction at the interphase was collected, washed, and stored in liquid nitrogen.
DGAT1 activity was assayed by a modification of the method described by Coleman (Methods in Enzymology 1992, 209, 98-102). Compound at 1-10 μM was incubated with 0.4 μg membrane protein, 5 mM MgCl2, and 100 μM 1,2 dioleoyl-sn-glycerol in a total assay volume of 200 μl in plastic tubes. The reaction was started by adding ^14C oleoyl coenzyme A (30 μM final concentration) and incubated at room temperature for 30 minutes. The reaction was stopped by adding 1.5 mL 2-propanol:heptane:water (80:20:2). Radioactive triolein product was separated into the organic phase by adding 1 mL heptane and 0.5 mL 0.1 M carbonate buffer pH 9.5. DGAT1 activity was quantified by counting aliquots of the upper heptane layer by liquid scintillography.

[2] = tested on: ACAT; experiment: ACAT enzyme assay; selectivity for DGAT over ACAT; assay type: biochemical; conditions: DGAT vs ACAT enzyme assays
Experimental: 3) The ability of compounds to inhibit ACAT can be measured using a modification of the enzyme assay described in Billheimer (1985) Methods in Enzymology, 111, 286-293. The test assesses the ability of a test compound to inhibit the esterification of cholesterol by measuring the amount of radiolabeled cholesteryl oleate formed from radiolabeled oleoyl CoA. Compound was incubated with 10 μg membrane protein and 267 μM cholesterol. After a 5 minute pre-incubation at 37° C. the reaction was started by adding ^14C oleoyl coenzyme A (50 μM final concentration) and incubated at 37° C. for a further 30 minutes. The reaction was stopped by adding 2-propanol:heptane (12:1). Radioactive cholesteryl ester product was separated into the organic phase by adding heptane and 1M carbonate buffer pH 9.5. ACAT activity was quantified by counting aliquots of the upper heptane layer by liquid scintillography.
The selectivity of a compound to inhibit DGAT over inhibition of ACAT may be defined as the ratio of IC50 values generated in the DGAT and ACAT enzyme assays for a particular compound.

SMILES: O=C(Nc1ccc(O[C@H]2CC[C@H](C(=O)O)CC2)cc1)c1nnc(Nc2ccc(F)cc2)o1 [Example 13, trans-4-{4-[({5-[(4-fluorophenyl)amino]-1,3,4-oxadiazol-2-yl}carbonyl)amino]phenoxy}cyclohexanecarboxylic acid]
- IC50 [1]: 17 nM
- selectivity to inhibit DGAT over inhibition of ACAT (ratio of IC50 values in the DGAT and ACAT enzyme assays) [2]: 310 fold
